# From patent US20240083900A1, “PYRAZOLO[1,5-A]PYRAZINE DERIVATIVES AS BTK INHIBITORS” (BIOGEN MA INC., priority 2020, published 2024)
# Biological target: BTK (Homo sapiens (Human), UniProt Q06187)
# Test: In Vitro BTK Kinase Assay: Btk-PolyGAT-LS Assay
# Format: biochemical
# Conditions: BTK enzyme 0.25 nM, ATP 10 μM, polyGAT 100 nM, 30 minutes incubation, TRF readout; read-out: IC50
# Method: The purpose of the BTK in vitro assay is to determine compound potency against BTK through the measurement of IC50. […] For a typical assay, a 24 μL aliquot of a ATP/peptide master mix (final concentration; ATP 10 μM, polyGAT 100 nM) in kinase buffer (10 mM Tris-HCl pH 7.5, 10 mM MgCl2, 200 μM Na3PO4, 5 mM DTT, 0.01% Triton X-100, and 0.2 mg/ml casein) is added to each well. […] The assay is incubated for 30 minutes before being stopped with 28 μL of a 50 mM EDTA solution. […] The plate is covered and incubated for 45 minutes at room temperature.
# Chain of BTK (Q06187 whole entry): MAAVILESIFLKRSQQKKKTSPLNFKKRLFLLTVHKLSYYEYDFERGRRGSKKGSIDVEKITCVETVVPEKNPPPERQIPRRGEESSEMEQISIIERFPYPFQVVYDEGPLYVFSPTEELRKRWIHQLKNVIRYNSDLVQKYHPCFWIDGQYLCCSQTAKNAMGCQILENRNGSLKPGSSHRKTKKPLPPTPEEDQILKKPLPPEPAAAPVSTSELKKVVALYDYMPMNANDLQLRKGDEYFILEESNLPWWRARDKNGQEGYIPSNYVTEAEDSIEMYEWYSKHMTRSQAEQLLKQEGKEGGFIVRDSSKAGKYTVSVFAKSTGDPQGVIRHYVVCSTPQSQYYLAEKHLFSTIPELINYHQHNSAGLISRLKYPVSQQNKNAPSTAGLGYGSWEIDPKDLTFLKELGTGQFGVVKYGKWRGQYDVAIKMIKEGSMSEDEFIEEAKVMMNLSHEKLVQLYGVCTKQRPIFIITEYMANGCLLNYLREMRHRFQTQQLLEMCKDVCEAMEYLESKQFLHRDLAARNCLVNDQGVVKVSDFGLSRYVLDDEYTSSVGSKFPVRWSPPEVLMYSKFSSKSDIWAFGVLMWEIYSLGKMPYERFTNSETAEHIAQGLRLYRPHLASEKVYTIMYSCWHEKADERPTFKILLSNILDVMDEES
row,SMILES,IC50 [nM]
1,"C=CC(=O)N1C[C@H]2C[C@@H]1C[C@@H]2Oc1nc(-c2cnn(C)c2)cn2nccc12 [Example 153, 1-((1R,4R,5S)-5-((6-(1-methyl-1H-pyrazol-4-yl)pyrazolo[1,5-a]pyrazin-4-yl)oxy)-2-azabicyclo[2.2.1]heptan-2-yl)prop-2-en-1-one]",10 to 1000
2,"C=CC(=O)N1CC2CCC(N(C)c3cc(-c4cnn(C)c4)cn4nccc34)C2C1 (stereo not drawn) [Example 154, 1-(4-(methyl(6-(1-methyl-1H-pyrazol-4-yl)pyrazolo[1,5-a]pyridin-4-yl)amino)hexahydrocyclopenta[c]pyrrol-2(1H)-yl)prop-2-en-1-one]",10 to 1000
3,"C=CC(=O)N(C)[C@H]1C[C@@H](Oc2nc(-c3cnn([C@@H]4CCOC4)c3)cn3nccc23)C1 [Example 155, N-methyl-N-((cis)-3-((6-(1-((R)-tetrahydrofuran-3-yl)-1H-pyrazol-4-yl)pyrazolo[1,5-a]pyrazin-4-yl)oxy)cyclobutyl)acrylamide]",< 1
4,"C=CC(=O)N(C)[C@H]1C[C@@H](Oc2nc(-c3cnn([C@H]4CCOC4)c3)cn3nccc23)C1 [Example 156, N-methyl-N-((cis)-3-((6-(1-((S)-tetrahydrofuran-3-yl)-1H-pyrazol-4-yl)pyrazolo[1,5-a]pyrazin-4-yl)oxy)cyclobutyl)acrylamide]",< 1
5,"CC#CC(=O)N[C@H]1C[C@@](C)(Oc2nc(-c3cnn(C(F)(F)F)c3)cn3ncc(C)c23)C1 [Example 157, Cis N-(3-methyl-3-((3-methyl-6-(1-(trifluoromethyl)-1H-pyrazol-4-yl)pyrazolo[1,5-a]pyrazin-4-yl)oxy)cyclobutyl)but-2-ynamide]",1 to 10
6,"C=CC(=O)N1C[C@@H]2[C@@H](CNc3cc(-c4cnn(C)c4)cn4nccc34)[C@@H]2C1 [Example 165, 1-((1R,5S,6s)-6-(((6-(1-methyl-1H-pyrazol-4-yl)pyrazolo[1,5-a]pyridin-4-yl)amino)methyl)-3-azabicyclo[3.1.0]hexan-3-yl)prop-2-en-1-one]",1 to 10
7,"CC#CC(=O)N[C@@H]1CCC[C@H](Oc2nc(-c3cnn(C)c3)cn3nccc23)C1 [Example 180, N-((1R,3S)-3-((6-(1-methyl-1H-pyrazol-4-yl)pyrazolo[1,5-a]pyrazin-4-yl)oxy)cyclohexyl)but-2-ynamide]",10 to 1000
8,"CN(C(=O)CCl)[C@H]1CCC[C@@H](Oc2nc(-c3cnn(C)c3)cn3nccc23)C1 [Example 181, 2-chloro-N-methyl-N-((1S,3R)-3-((6-(1-methyl-1H-pyrazol-4-yl)pyrazolo[1,5-a]pyrazin-4-yl)oxy)cyclohexyl)acetamide]",< 1
9,"C=CC(=O)N(C)CCCOc1nc(-c2cnn(C)c2)cn2nccc12 [Example 182, N-methyl-N-(3-((6-(1-methyl-1H-pyrazol-4-yl)pyrazolo[1,5-a]pyrazin-4-yl)oxy)propyl)acrylamide]",10 to 1000
10,"C=CC(=O)N(C)CC(C)CCOc1nc(-c2cnn(C)c2)cn2nccc12 (stereo not drawn) [Example 184, N-methyl-N-(2-methyl-4-((6-(1-methyl-1H-pyrazol-4-yl)pyrazolo[1,5-a]pyrazin-4-yl)oxy)butyl)acrylamide]",10 to 1000
11,"Cc1ncc(-c2cn3nccc3c(O[C@@]3(C)C[C@@H]4[C@H]3CCN4C(=O)C3=CCC3)n2)s1 [Example 196, Cyclobut-1-en-1-yl((1R,5R,6S)-6-methyl-6-((6-(2-methylthiazol-5-yl)pyrazolo[1,5-a]pyrazin-4-yl)oxy)-2-azabicyclo[3.2.0]heptan-2-yl)methanone]",10 to 1000
12,"C=CC(=O)N1C[C@@H]2C[C@H](Oc3nc(-c4cnn(C)c4)cn4ncc(C)c34)[C@@H]2C1 [Example 198, 1-((1R,5S,6S)-6-((3-methyl-6-(1-methyl-1H-pyrazol-4-yl)pyrazolo[1,5-a]pyrazin-4-yl)oxy)-3-azabicyclo[3.2.0]heptan-3-yl)prop-2-en-1-one]",10 to 1000
13,"Cn1cc(-c2cc3nccn3c(O[C@]3(C)C[C@H](N(C)C(=O)/C=C/C(F)(F)F)C3)n2)cn1 [Example 201, (E)-4,4,4-trifluoro-N-methyl-N-((1s,3s)-3-methyl-3-((7-(1-methyl-1H-pyrazol-4-yl)imidazo[1,2-c]pyrimidin-5-yl)oxy)cyclobutyl)but-2-enamide]",1 to 10
14,"C=CC(=O)N1CCC2(CC1)CC(Oc1nc(-c3cnn(C)c3)cn3nccc13)C2 [Example 208, 1-(2-((6-(1-methyl-1H-pyrazol-4-yl)pyrazolo[1,5-a]pyrazin-4-yl)oxy)-7-azaspiro[3.5]nonan-7-yl)prop-2-en-1-one]",10 to 1000
15,"C=CC(=O)N(C)CC1(COc2nc(-c3cnn(C)c3)cn3nccc23)CC1 [Example 216, N-methyl-N-((1-(((6-(1-methyl-1H-pyrazol-4-yl)pyrazolo[1,5-a]pyrazin-4-yl)oxy)methyl)cyclopropyl)methyl)acrylamide]",10 to 1000
16,"CC#CC(=O)N(C)[C@H]1C[C@@H](Oc2nc(-c3cnn(C)c3)c(F)n3nccc23)C1 [Example 222, N-((cis)-3-((7-fluoro-6-(1-methyl-1H-pyrazol-4-yl)pyrazolo[1,5-a]pyrazin-4-yl)oxy)cyclobutyl)-N-methylbut-2-ynamide]",10 to 1000
17,"CC#CC(=O)N(CCF)[C@H]1C[C@H](Oc2nc(-c3cnn(C)c3)cn3nccc23)C1 [Example 223, N-(2-fluoroethyl)-N-((trans)-3-((6-(1-methyl-1H-pyrazol-4-yl)pyrazolo[1,5-a]pyrazin-4-yl)oxy)cyclobutyl)but-2-ynamide]",10 to 1000
18,"Cn1cc(-c2cn3nccc3c(O[C@H]3C[C@H](N(C)C(=O)/C=C/CCl)C3)n2)cn1 [Example 227, (E)-4-chloro-N-methyl-N-((trans)-3-((6-(1-methyl-1H-pyrazol-4-yl)pyrazolo[1,5-a]pyrazin-4-yl)oxy)cyclobutyl)but-2-enamide]",< 1
19,"Cn1cc(-c2cn3nccc3c(O[C@]3(C)C[C@H](N(C)C(=O)C4=CCC4)C3)n2)cn1 [Example 230, N-methyl-N-((1s,3s)-3-methyl-3-((6-(1-methyl-1H-pyrazol-4-yl)pyrazolo[1,5-a]pyrazin-4-yl)oxy)cyclobutyl)cyclobut-1-ene-1-carboxamide]",1 to 10

# Test system: CD69 expression on CD19+ B cells in human whole blood stimulated with anti-human IgD
# Test: In Vitro whole blood CD69 Assay
# Format: cell-based
# Conditions: Homo sapiens, B-cell
row,SMILES,IC50 [nM]
1,"C=CC(=O)N(C)[C@H]1C[C@@](C)(Oc2nc(-c3cnn(C)c3)cn3nccc23)C1 [Example 79, N-methyl-N-((1s,3s)-3-methyl-3-((6-(1-methyl-1H-pyrazol-4-yl)pyrazolo[1,5-a]pyrazin-4-yl)oxy)cyclobutyl)acrylamide]",< 1000

# Same assay, conditions: Homo sapiens, B-cell, human heparinized whole blood, anti-human IgD stimulation overnight, percentage of CD19+ B cells expressing CD69, flow cytometry; read-out: IC50
row,IC50 [nM],SMILES
1,< 1000,"C=CC(=O)N(C)[C@@H]1CC[C@H](Oc2nc(-c3cnn(C)c3)cn3nccc23)C1 (relative stereo) [Example 143, N-methyl-N-((cis)-3-((6-(1-methyl-1H-pyrazol-4-yl)pyrazolo[1,5-a]pyrazin-4-yl)oxy)cyclopentyl)acrylamide]"
2,1000 to 10000,"Cn1cc(-c2cn3nccc3c(OC3CCN(C(=O)/C=C\CCl)CC3)n2)cn1 [Example 8, (Z)-4-chloro-1-(4-((6-(1-methyl-1H-pyrazol-4-yl)pyrazolo[1,5-a]pyrazin-4-yl)oxy)piperidin-1-yl)but-2-en-1-one]"
3,< 1000,"C=CC(=O)N1CCC[C@@H](Oc2nc(-c3cnn(C)c3)cn3nccc23)CC1 [Example 29, (R)-1-(4-((6-(1-methyl-1H-pyrazol-4-yl)pyrazolo[1,5-a]pyrazin-4-yl)oxy)azepan-1-yl)prop-2-en-1-one]"
4,< 1000,"C=CC(=O)N(C)C12CCC(Oc3nc(-c4cnn(C)c4)cn4nccc34)(C1)C2 [Example 99, N-methyl-N-(4-((6-(1-methyl-1H-pyrazol-4-yl)pyrazolo[1,5-a]pyrazin-4-yl)oxy)bicyclo[2.1.1]hexan-1-yl)acrylamide]"
5,< 1000,"C=CC(=O)N(C)[C@H]1CC[C@@H](Oc2nc(-c3cnn(C)c3)cn3nccc23)C1 [Example 145, N-methyl-N-((1S,3R)-3-((6-(1-methyl-1H-pyrazol-4-yl)pyrazolo[1,5-a]pyrazin-4-yl)oxy)cyclopentyl)acrylamide]"
6,< 1000,"C=CC(=O)N1C[C@H]2C[C@@H](Oc3nc(-c4cnn(C)c4)cn4nccc34)C[C@@H]1C2 [Example 167, 1-((1R,3R,5S)-3-((6-(1-methyl-1H-pyrazol-4-yl)pyrazolo[1,5-a]pyrazin-4-yl)oxy)-6-azabicyclo[3.2.1]octan-6-yl)prop-2-en-1-one]"

row,SMILES,IC50 [nM]
1,"C=CC(=O)N1CCC(Oc2nc(-c3cnn(C)c3)cn3nccc23)CC1 [Example 2, 1-(4-((6-(1-methyl-1H-pyrazol-4-yl)pyrazolo[1,5-a]pyrazin-4-yl)oxy)piperidin-1-yl)prop-2-en-1-one]",> 10000
2,"C=CC(=O)N1CCC[C@@H](Oc2nc(-c3cnn(C)c3)cn3nccc23)C1 [Example 4, (R)-1-(3-((6-(1-methyl-1H-pyrazol-4-yl)pyrazolo[1,5-a]pyrazin-4-yl)oxy)piperidin-1-yl)prop-2-en-1-one]",> 10000
3,"C=CC(=O)N1CC[C@@H](Oc2nc(-c3cnn(C)c3)cn3nccc23)C1 [Example 11, (R)-1-(3-((6-(1-methyl-1H-pyrazol-4-yl)pyrazolo[1,5-a]pyrazin-4-yl)oxy)pyrrolidin-1-yl)prop-2-en-1-one]",> 10000

# Same assay, conditions: human heparinized whole blood, anti-human IgD stimulation overnight, percentage of CD19+ B cells expressing CD69, flow cytometry; read-out: IC50
row,SMILES,IC50 [nM]
1,"C=CC(=O)N(C)[C@]1(C)C[C@H](Oc2nc(-c3cnn(C)c3)cn3nccc23)C1 [Example 158, Cis N-methyl-N-(1-methyl-3-((6-(1-methyl-1H-pyrazol-4-yl)pyrazolo[1,5-a]pyrazin-4-yl)oxy)cyclobutyl)acrylamide]",< 1000
